From patent publication US11149277B2, “Method of producing enriched exosomes” (National Health Research Institutes, priority 2016, dated 2021)

Tests used:
NAMECs [1] = experiment: Resistance of NAMECs to 0.05% trypsin (MET); type: cell-based, human; conditions: 4 days treatment
Procedure: (§1) FIG. 3 includes a set of images and two graphs. (A) is a set of bright-field images of NAMECs treated with vehicle, GW627368X, Dynasore (1 μM), or GW627368X plus Dynasore (0.5, 1, 1.5 μM) for 4 days. Scale bar, 100 μm. (B) is a graph showing the percentage of NAMECs treated with vehicle, GW627368X, Dynasore (1 μM), or GW627368X plus Dynasore (0.75 and 1 μM) that were resistant to 0.05% trypsin. Data are means±SEM, (n=3). ***P≤0.001. (C) is a graph showing Boyden chamber migration of NAMECs treated with vehicle (Crl), GW627368X, Dynasore (1 μM), or GW627368X plus Dynasore (0.5, 0.75, 1 μM) for 4 days. Data are means±SEM (n=3). **P≤0.005. ***P≤0.001.

HMLE cells = experiment: Exosome markers in CM-P4 fraction of non-stem HMLE cells; type: cell-based; conditions: 2 days treatment
Source text: FIG. 2 includes graphs and blots showing analyses of GW-treated NAMEC P4 fractions. CM-P4 GW-treated NAMECs were collected and subjected to (A) NanoSight Nanoparticle Tracking Analysis (NTA) and (B) Dynamic Light Scattering/Zeta Potential Analysis (DLS). […] D: particle diameter. RN: relative number. (C) is a blot showing the amounts of the CD44 stem cell marker and the CD81, CD9, TSG101, Alix, HSP70 and GAPDH exosome markers measured in the indicated CM-P4 fractions and cell lysates. The culture media and cell lysates were collected from the same number of NAMECs treated with vehicle (Crl), GW627368X (GW) or PGE2 (1 μM) for 4 days. (D) is a blot showing the amounts of the GAPDH and CD81 exosome markers and the CD44 stem cell marker measured in the CM-P4 fraction of NAMECs (CD44hi/CD24− stem cells) or CD44lo/CD24+ non-stem cells (HMLE cells) treated with vehicle (Crl) or GW for 2 days. 1×: P4 exosome fraction released by 1×10^6 cells; 2×: P4 exosome fraction released by 2×10^6 cells. […] (E) is a blot showing that the CD44 stem cell marker and GAPDH and CD81 exosome markers were measured in the indicated P4 conditioned medium fractions of NAMECs treated with vehicle (Crl), GW627368X (GW, 1 μg/ml), AH23848 (EP4 antagonist; 0.4, 2, 4 μg/ml), or AH6809 (EP1/2/3 antagonist; 0.8, 4, 8 μg/ml). […]

NAMECs [2] = experiment: Boyden chamber migration of NAMECs; type: cell-based, human; conditions: GW pre-treatment, 4 days
Procedure: as §1

NAMECs [3] = experiment: Western blot of exosome markers and proteins in CM-P4 fractions of NAMECs; type: cell-based, human
Source text: FIG. 2 includes graphs and blots showing analyses of GW-treated NAMEC P4 fractions. CM-P4 GW-treated NAMECs were collected and subjected to (A) NanoSight Nanoparticle Tracking Analysis (NTA) and (B) Dynamic Light Scattering/Zeta Potential Analysis (DLS). […] D: particle diameter. RN: relative number. (C) is a blot showing the amounts of the CD44 stem cell marker and the CD81, CD9, TSG101, Alix, HSP70 and GAPDH exosome markers measured in the indicated CM-P4 fractions and cell lysates. The culture media and cell lysates were collected from the same number of NAMECs treated with vehicle (Crl), GW627368X (GW) or PGE2 (1 μM) for 4 days. (D) is a blot showing the amounts of the GAPDH and CD81 exosome markers and the CD44 stem cell marker measured in the CM-P4 fraction of NAMECs (CD44hi/CD24− stem cells) or CD44lo/CD24+ non-stem cells (HMLE cells) treated with vehicle (Crl) or GW for 2 days. 1×: P4 exosome fraction released by 1×10^6 cells; 2×: P4 exosome fraction released by 2×10^6 cells. […] (E) is a blot showing that the CD44 stem cell marker and GAPDH and CD81 exosome markers were measured in the indicated P4 conditioned medium fractions of NAMECs treated with vehicle (Crl), GW627368X (GW, 1 μg/ml), AH23848 (EP4 antagonist; 0.4, 2, 4 μg/ml), or AH6809 (EP1/2/3 antagonist; 0.8, 4, 8 μg/ml). (F) is a blot showing the HSP70, GAPDH and CD81 exosome markers measured in the indicated CM-P4 of NAMECs, NAMEC-shEP4-1 cells, and NAMEC-shEP4-2 cells treated with vehicle or with doxycycline (Dox, 2 μg/ml) (top panel). Doxyclycline (Dox) induced the production EP4 shRNA in NAMEC-shEP4 cells (bottom panel).
The P4 exosome fractions and cell lysates were collected from NAMECs treated with vehicle (Crl), GW627368X (GW), or PGE2 for 4 days. 1×: P4 exosome fraction released by 2.5×10^5 cells; 5×: P4 exosome fraction released by 12.5×10^5 cells. Hg: Hg-integrin β1, Lg: Lg-integrin β1, H: H-integrin α6, L: L-integrin α6, pg: pg-LRP6, g: g-LRP6, Ng: Ng-LRP6.
The isolated human mammary epithelial stem cells (NAMECs) were cultured in mammary epithelial cell basal medium (250 ml MCDB-170, 250 ml DMEM-F12, 1.2 g sodium bicarbonate, 2.5 μg EGF, 0.25 mg Hydrocortisone, 2.5 mg insulin, 35 mg BPE) with or without containing EP4 antagonist, i.e., GW627368X (GW) at 1 μg/ml, or AH23848 (AH) at 4 μg/ml, for 4 days. The culture medium was supplied with 0.5 μg/ml of GW or 2 μg/ml of AH23848 at the third day of the culturing period. For the induction of EP4 antagonist-induced exosomes from mouse mammary epithelial cells, cells were cultured in a medium containing 10 μg/ml of GW for 4 days.
The culture media were centrifuged at 300 g for 5 min to remove cells (P1), at 2,000 g for 20 min (P2), then at 10,000 g for 30 min (P3) all at 4° C. Dead cells and cell debris were removed at 300 g (P1) and 1200 g (P2). […]

MDA-MB-231 cells = experiment: NTA and EV protein of CM-P4 fractions of MDA-MB-231 cells; type: cell-based, human
Source text: (§2) (A) Quantification of EV/exosome release, shown as the number of particles in the CM-P4 fractions released per cell, from MCF-7 and MDA-MB-231 breast cancer cells treated with vehicle or with the indicated concentrations of GW627368X. Particles in the P4 fractions were counted using nanoparticle tracking analysis. Data are means±SEM (n=10). *P≤0.05, ***P≤0.001. (B) Quantification of the total EV protein released from MCF-7 and MDA-MB-231 cells treated with vehicle or with the indicated concentrations of GW627368X. The amounts (m) of protein present per cell in the conditioned medium P4 fractions are presented as means±SEM (n=3). *P≤0.05; (C) Protein levels in the P4 EV/exosome fractions and cell lysates, analyzed by Western blot. Culture media and cell lysates were collected from the same numbers of MCF-7 and MDA-MB-231 cells treated with vehicle or with GW627368X (GW), at the indicated concentrations, for 4 days. The P4 fractions of the culture media, containing EVs, were isolated. […]
(§3) We next examined whether blocking EP4-mediated signaling with an EP4 antagonist can elicit EV-mediated removal of CSC proteins (e.g., mesenchymal markers and stem cell markers) in the human breast carcinoma MCF-7 and MDA-MB-231 cell lines. P4 fractions from the conditioned media (CM-P4) of GW-treated MCF-7 and MDA-MB-231 cells were analyzed using NTA (FIG. 21, A). […]

MCF-7 cells = experiment: NTA and EV protein of CM-P4 fractions of MCF-7 cells; type: cell-based, human; conditions: increasing concentrations of GW
Source text: as §2, §3

In the case of CCOc1c2c(c(OCC)c3ccccc13)C(=O)N(c1ccc(CC(=O)NS(=O)(=O)c3ccccc3)cc1)C2 [GW627368X], the “resistance to disassociation by 0.05% trypsin” value (NAMECs [1]) is reported as “more resistant”, the “exosome release from non-stem HMLE cells (CD81, CD44, GAPDH)” value (HMLE cells) is reported as “did not increase exosome release” and the “decrease of number of migrating cells” value (NAMECs [2]) is reported as roughly 60%. For the same molecule, the “amount of total exosomal proteins released vs vehicle or PGE2” value (NAMECs [3]; 4 days treatment) was “much greater”, the “exosome release by exosome markers in CM-P4 fractions” value (NAMECs [3]; AH23848 0.4, 2, 4 μg/ml, AH6809 0.8, 4, 8 μg/ml, GW 1 μg/ml) was “Large amounts” and the “amount of protein per cell in the EV/exosome fraction” value (MDA-MB-231 cells; GW-treated MDA-MB-231) was 10 fold. The “numbers of EVs released” value (MDA-MB-231 cells; increasing concentrations of GW) was “modestly increased” and the “numbers of EVs released” value (MCF-7 cells) was “modestly increased”.
